Results on four compounds are retold here after patent US20260200903A1, “PHARMACEUTICAL COMPOSITION FOR AMELIORATING MALIGNANT DISEASES” (KINKI UNIVERSITY, priority 2020, published 2026).

Each structure is given as a SMILES string.

What all share (assay type): cell-based
In test [1] the test system is L363 cells (myeloma cell line). The test is described as follows: Cell death inducing effect on L363 cells, trypan blue staining. The procedure:
L363 cells (myeloma cell line) were cultured under 5% CO2 at 37° C. The culture medium used RPMI-1640 medium with 100 μg/mL penicillin, 100 U/mL streptomycin and fetal bovine serum. L363 cells were seeded into 96-well plates and incubated with each concentration of the compounds was added, and cell viability was determined by the trypan blue staining.
(§1) For controls, only 0.5% DMSO (diluted in PBS) used to dissolve the compounds was added. For each concentration, each bar line is indicated by an arrow with the sign “n, a, 1, 2, 3, 4, 5, 6, 7, 8, 9, 10, 11, 12” from left to right. The “1, 3, 5, 7, 9, 11” are omitted from the graph, but the sign “1” shall be indicated by an arrow between the signs “a” and “2”, the sign “3” between the signs “2” and “4”, and other odd numbers shall likewise be indicated by arrows between even numbers before and after.
(§2) The sign “n” is the norathyriol (formula (n)) administration group, the sign “a” is the mangiferin 8a (formula (a)) administration group, the sign “1” is the yk-7 (formula (1)) administration group, the sign “2” is the yk-8-1 (formula (2)) administration group, the sign “3” is the yk-8-3 (formula (3)) administration group, the sign “4” is the M7 (formula (4)) administration group, the sign “5” is the M9 (formula (5)) administration group, the sign “6” is the M11 (formula (6)) administration group, the sign “7” is the M12 (formula (7)) administration group, the sign “8” is the M14 (formula (8)) administration group, the sign “9” is the M15 (formula (9)) administration group, the sign “10” is the M16 (formula (10)) administration group, the sign “11” is the M18 (formula (11)) administration group, the sign “12” is the M19 (formula (12)) administration group, respectively. The IC50 values for each compound is also listed in the upper right corner of the figure.

For test [2], the system named is RPMI8226 cells (myeloma cell line). The test is described as follows: Cell death inducing effect on RPMI8226 cells, trypan blue staining. The procedure: RPMI8226 cells (myeloma cell line) were cultured under 5% CO2 at 37° C. The culture medium used RPMI-1640 medium with 100 μg/mL penicillin, 100 U/mL streptomycin and fetal bovine serum. RPMI8226 cells were seeded into 96-well plates and incubated with each concentration of the compounds was added, and cell viability was determined by the trypan blue staining.
as §1, §2

The subject of test [3] is RPMI8226/B cells (bortezomib-resistant myeloma cell line). Description: Cell death inducing effect on RPMI8226/B cells, trypan blue staining. To be noted: RPMI8226/B (myeloma; bortezomib resistance), cell viability. On the procedure:
RPMI8226/B cells (bortezomib-resistant myeloma cell line) were cultured under 5% CO2 at 37° C. The culture medium used RPMI-1640 medium with 100 μg/mL penicillin, 100 U/mL streptomycin and fetal bovine serum. RPMI8226/B cells were seeded into 96-well plates and incubated with each concentration of the compounds was added, and cell viability was determined by the trypan blue staining.
as §1, §2

In test [4] the test system is Rec-1 cells (mantle cell lymphoma cell line). The test is described as follows: Cell death inducing effect on Rec-1 cells, trypan blue staining. To be noted: Rec-1 (mantle cell lymphoma), cell viability. On the procedure: Rec-1 cells (mantle cell lymphoma cell line) were cultured under 5% CO2 at 37° C. The culture medium used RPMI-1640 medium with 100 μg/mL penicillin, 100 U/mL streptomycin and fetal bovine serum. Rec-1 cells were seeded into 96-well plates and incubated with each concentration of the compounds was added, and cell viability was determined by the trypan blue staining.
as §1, §2

Test [5] concerns Raji cells (burkitt lymphoma cell line). The test is described as follows: Cell death inducing effect on Raji cells, trypan blue staining. To be noted: Raji (Burkkit lymphoma), cell viability. The procedure:
Raji cells (burkitt lymphoma cell line) were cultured under 5% CO2 at 37° C. The culture medium used RPMI-1640 medium with 100 μg/mL penicillin, 100 U/mL streptomycin and fetal bovine serum. Raji cells were seeded into 96-well plates and incubated with each concentration of the compounds was added, and cell viability was determined by the trypan blue staining.
as §1, §2

Test [6] concerns SU-DHL-4 cells (diffuse large B-cell lymphoma). Description: Cell death inducing effect on SU-DHL-4 cells, trypan blue staining. To be noted: SU-DHL-4 (DLBCL), cell viability. The procedure:
SU-DHL-4 cells (diffuse large B-cell lymphoma) were cultured under 5% CO2 at 37° C.
The culture medium used RPMI-1640 medium with 100 μg/mL penicillin, 100 U/mL streptomycin and fetal bovine serum. SU-DHL-4 cells were seeded into 96-well plates and incubated with each concentration of the compounds was added, and cell viability was determined by the trypan blue staining.
as §1, §2

Test [7] has as its system CCRF-SB cells (acute lymphocytic leukemia cell line). Description: Cell death inducing effect on CCRF-SB cells, trypan blue staining. To be noted: CCRF-SB (acute lymphoblastic leukemia), cell viability. On the procedure:
CCRF-SB cells (acute lymphocytic leukemia cell line) were cultured under 5% CO2 at 37° C. The culture medium used RPMI-1640 medium with 100 μg/mL penicillin, 100 U/mL streptomycin and fetal bovine serum. CCRF-SB cells were seeded into 96-well plates and incubated with each concentration of the compounds was added, and cell viability was determined by the trypan blue staining.
as §1, §2

The subject of a further test is CD20. The test is described as follows: CD20 expression in KMS-28BM cells, flow cytometry. To be noted: 10 days, concentration lower than the IC50 (0.005-50 μM), compared to the positive control. On the procedure: As a control, compounds untreated KMS-28BM cells were seeded in 75 cm^2 flasks and incubated for 10 days at 37° C. and 5% CO2. KMS-28BM cells were seeded into 75 cm^2 flasks and pre-cultured for 4 h. After incubation, KMS-28BM cells were treated with […], 0.05 μM M9, 0.1 μM yk-7, 0.1 μM yk-8-3, 50 μM yk-8-1, 0.5 μM M11, […], 0.005 μM M14, 0.005 μM M15, 0.005 μM M16, 0.5 μM M18, and 0.5 μM M19 at final concentrations, and incubated for 10 days at 37° C. and 5% CO2. This added amount is a concentration lower than the IC50 of the above compounds for KMS-28BM cells. After 10 days of incubation, cells were stained with anti-CD20 antibody, a B cell marker, and CD20 expression was measured using BD LSRFortessa. CCRF-SB cells were used as CD20-positive controls.
Results are shown in FIG. 21, FIG. 22, FIG. 23, and FIG. 24. The horizontal axis represents the expression level of CD20 and the vertical axis represents the number of cells.

The mark [8] stands for this setting: Homo sapiens, L-363, cell viability.
[9] abbreviates: Homo sapiens, RPMI-8226, cell viability.

Take `C=CCOc1cc(O)cc2oc3cc(O)c(O)cc3c(=O)c12` [Compound M19, 1-allyloxy-3,6,7-trihydroxy-9H-xanthen-9-one]: the IC50 in test [1] (setting [8]) worked out at 7.2 µM; in test [2] (setting [9]), 9.54 µM; in test [3] (Homo sapiens, RPMI-8226), 0.758 µM; in test [4] (Homo sapiens, Rec1), 21.6 µM; in test [5] (Homo sapiens) it was 8.92 µM; in test [6] (Homo sapiens) it was 17.4 µM. Further, 18.2 µM corresponded to half-maximal inhibition in test [7] (Homo sapiens) (IC50). Further, the CD20 expression level result with CD20 is given as “significantly increased”.

Take `CCCCC(=O)OC[C@H]1O[C@@H](c2c(O)cc3oc4cc(O)c(O)cc4c(=O)c3c2O)[C@H](OC(=O)CCCC)[C@@H](OC(=O)CCCC)[C@@H]1OC(=O)CCCC` [yk-7, 2′,3′,4′,6′-tetra-O-valerylmangiferin]: the IC50 in test [1] (setting [8]) is 5.7 µM; in test [2] (setting [9]), 2.46 µM; in test [3] (Homo sapiens, RPMI-8226), 0.079 µM; in test [4] (Homo sapiens, Rec1), 2.6 µM; in test [5] (Homo sapiens) it was 0.383 µM; in test [6] (Homo sapiens) it was 0.288 µM. In test [7] (Homo sapiens), this compound yielded an IC50 of 1.84 µM. The CD20 expression level result in the test on CD20 was “significantly increased”.

On to `CCCCC(=O)OC[C@H]1O[C@@H](c2c(OC(=O)CCCC)cc3oc4cc(OC(=O)CCCC)c(OC(=O)CCCC)cc4c(=O)c3c2OC(=O)CCCC)[C@H](OC(=O)CCCC)[C@@H](OC(=O)CCCC)[C@@H]1OC(=O)CCCC` [yk-8-1, 1,3,2′,3′,4′,6,6′,7-octa-O-valerylmangiferin], for which the IC50 was over 100 µM in test [1] (cell viability); over 100 µM in test [2] (cell viability); 6.43 µM in test [3]; over 100 µM in test [4]; over 100 µM in test [5]; over 100 µM in test [6]. Also, in test [7], the IC50 is over 100 µM. Besides, in the test on CD20, the CD20 expression level entry is on record as “significantly increased”.

For the compound `CCCCC(=O)OC[C@H]1O[C@@H](c2c(O)cc3oc4cc(O)c(O)cc4c(=O)c3c2OC(=O)CCCC)[C@H](OC(=O)CCCC)[C@@H](OC(=O)CCCC)[C@@H]1OC(=O)CCCC` [yk-8-3, 1,2′,3′,4′,6-penta-O-valerylmangiferin], the IC50 in test [1] (setting [8]) is 1.4 µM; in test [2] (setting [9]), 2.27 µM; in test [3] (Homo sapiens, RPMI-8226), 0.231 µM; in test [4] (Homo sapiens, Rec1) it was 3.31 µM; in test [5] (Homo sapiens), 0.865 µM; in test [6] (Homo sapiens), 0.346 µM. In test [7] (Homo sapiens), this compound had an IC50 of 2.41 µM. Besides, in the test with CD20, the CD20 expression level result is listed as “significantly increased”.
